Assay results reported in PubChem BioAssay (NCI).
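Growth conditions: 96-well plates. Treatment: test compound, 48 hours, 5 concentrations. Analysis: linear interpolation between bracketing concentrations; unreached endpoints set to highest concentration. TGI marks complete inhibition of growth.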

Key:
Test in all cases: NCI tumour cell line growth inhibition, 48 h
SW-620 colon = test system: SW-620 colon
KM12 colon = test system: KM12 colon
SK-MEL-28 melanoma = test system: SK-MEL-28 melanoma
MDA-N = test system: MDA-N
CAKI-1 renal = test system: CAKI-1 renal
SF-295 CNS = test system: SF-295 CNS
786-0 renal = test system: 786-0 renal
SF-539 CNS = test system: SF-539 CNS
HOP-62 NSCLC = test system: HOP-62 NSCLC
TK-10 renal = test system: TK-10 renal
K-562 leukemia = test system: K-562 leukemia

Cc1ccc(F)cc1NC(=O)O/N=C(\Cl)C(C)C
TGI (SW-620 colon): 3.18 µM
TGI (KM12 colon): 34.8 µM
TGI (SK-MEL-28 melanoma): 38 µM
TGI (MDA-N): 11.8 µM
TGI (CAKI-1 renal): 3.09 µM
TGI (SF-295 CNS): > 61.1 µM
TGI (786-0 renal): 15.7 µM
TGI (SF-539 CNS): 18.1 µM
TGI (HOP-62 NSCLC): 37.2 µM
TGI (TK-10 renal): 15 µM
TGI (K-562 leukemia): 5.72 µM

NCCC(N)C(=O)O (stereo unspecified)
TGI (SW-620 colon): > 100 µM
TGI (KM12 colon): > 100 µM
TGI (SK-MEL-28 melanoma): > 100 µM
TGI (MDA-N): > 100 µM
TGI (CAKI-1 renal): > 100 µM
TGI (SF-295 CNS): > 100 µM
TGI (786-0 renal): > 100 µM
TGI (SF-539 CNS): > 100 µM
TGI (HOP-62 NSCLC): > 100 µM
TGI (TK-10 renal): > 100 µM
TGI (K-562 leukemia): > 100 µM

CC(=O)Oc1ccc(/C=C/C(=O)O[C@@H](C)[C@H](C)OC(=O)/C=C/c2ccc(OC(C)=O)c(OC(C)=O)c2)cc1OC(C)=O
TGI (SW-620 colon): 35.3 µM
TGI (KM12 colon): 78.8 µM
TGI (SK-MEL-28 melanoma): 77.7 µM
TGI (MDA-N): 89.4 µM
TGI (CAKI-1 renal): > 100 µM
TGI (SF-295 CNS): 39.3 µM
TGI (786-0 renal): > 100 µM
TGI (SF-539 CNS): > 100 µM
TGI (HOP-62 NSCLC): 56.3 µM
TGI (TK-10 renal): > 100 µM
TGI (K-562 leukemia): > 100 µM

CC(C)(CN)CN
TGI (SW-620 colon): > 100 µM
TGI (KM12 colon): > 100 µM
TGI (SK-MEL-28 melanoma): > 100 µM
TGI (MDA-N): > 100 µM
TGI (CAKI-1 renal): > 100 µM
TGI (SF-295 CNS): > 100 µM
TGI (786-0 renal): > 100 µM
TGI (SF-539 CNS): > 100 µM
TGI (HOP-62 NSCLC): > 100 µM
TGI (TK-10 renal): > 100 µM
TGI (K-562 leukemia): > 100 µM

COc1ccc(N(C(=O)Nc2ccc(Cl)c(Cl)c2)c2ccccc2)cc1
TGI (SW-620 colon): > 10 µM
TGI (KM12 colon): > 10 µM
TGI (SK-MEL-28 melanoma): > 10 µM
TGI (MDA-N): > 10 µM
TGI (CAKI-1 renal): > 10 µM
TGI (SF-295 CNS): > 10 µM
TGI (786-0 renal): > 10 µM
TGI (SF-539 CNS): > 10 µM
TGI (HOP-62 NSCLC): > 10 µM
TGI (TK-10 renal): > 10 µM
TGI (K-562 leukemia): > 10 µM

COc1ccc(N[C@H](CS(=O)c2ccc(C)cc2)c2ccc(F)cc2)cc1 (stereo partly specified)
TGI (SW-620 colon): > 100 µM
TGI (KM12 colon): > 100 µM
TGI (SK-MEL-28 melanoma): > 100 µM
TGI (MDA-N): > 100 µM
TGI (CAKI-1 renal): > 100 µM
TGI (SF-295 CNS): > 100 µM
TGI (786-0 renal): > 100 µM
TGI (SF-539 CNS): 56.7 µM
TGI (HOP-62 NSCLC): > 100 µM
TGI (TK-10 renal): > 100 µM
TGI (K-562 leukemia): > 100 µM

COc1ccc2c(c1)OC(c1cccnc1)C(c1ccccc1)C2=O (stereo unspecified)
TGI (SW-620 colon): > 100 µM
TGI (KM12 colon): > 100 µM
TGI (SK-MEL-28 melanoma): > 100 µM
TGI (MDA-N): > 100 µM
TGI (CAKI-1 renal): > 100 µM
TGI (SF-295 CNS): > 100 µM
TGI (786-0 renal): > 100 µM
TGI (SF-539 CNS): > 100 µM
TGI (HOP-62 NSCLC): > 100 µM
TGI (TK-10 renal): > 100 µM
TGI (K-562 leukemia): > 100 µM

Cc1ccc([N+](=O)[O-])cc1S(=O)(=O)Nc1ccc(C2=NN(c3ccc([N+](=O)[O-])cc3[N+](=O)[O-])C(c3ccccc3)C2)cc1 (stereo unspecified)
TGI (SW-620 colon): > 100 µM
TGI (KM12 colon): 44.8 µM
TGI (SK-MEL-28 melanoma): > 100 µM
TGI (MDA-N): 35.5 µM
TGI (CAKI-1 renal): > 100 µM
TGI (SF-295 CNS): 35.9 µM
TGI (786-0 renal): 30.3 µM
TGI (SF-539 CNS): 50.8 µM
TGI (HOP-62 NSCLC): 33 µM
TGI (TK-10 renal): 61.8 µM
TGI (K-562 leukemia): > 100 µM

c1ccc2c(-c3cnc(-c4c[nH]c5ccccc45)cn3)c[nH]c2c1
TGI (SW-620 colon): 47.9 µM
TGI (KM12 colon): > 100 µM
TGI (SK-MEL-28 melanoma): > 100 µM
TGI (MDA-N): 50.3 µM
TGI (CAKI-1 renal): > 100 µM
TGI (SF-295 CNS): 50.4 µM
TGI (786-0 renal): > 100 µM
TGI (SF-539 CNS): 73.7 µM
TGI (HOP-62 NSCLC): > 100 µM
TGI (TK-10 renal): > 100 µM
TGI (K-562 leukemia): > 100 µM

CCCCOC(=O)C(=O)C(CCC(=O)c1ccc(C)cc1)C(=O)C=C(C)C (stereo unspecified)
TGI (SW-620 colon): > 100 µM
TGI (KM12 colon): > 100 µM
TGI (SK-MEL-28 melanoma): > 100 µM
TGI (MDA-N): > 100 µM
TGI (CAKI-1 renal): > 100 µM
TGI (SF-295 CNS): > 100 µM
TGI (786-0 renal): > 100 µM
TGI (SF-539 CNS): > 100 µM
TGI (HOP-62 NSCLC): > 100 µM
TGI (TK-10 renal): > 100 µM
TGI (K-562 leukemia): > 100 µM

CC(=O)c1ccc(N=Nc2ccc3nonc3c2N)cc1
TGI (SW-620 colon): > 100 µM
TGI (KM12 colon): > 100 µM
TGI (SK-MEL-28 melanoma): > 100 µM
TGI (MDA-N): > 100 µM
TGI (CAKI-1 renal): > 100 µM
TGI (SF-295 CNS): > 100 µM
TGI (786-0 renal): > 100 µM
TGI (SF-539 CNS): > 100 µM
TGI (HOP-62 NSCLC): > 100 µM
TGI (TK-10 renal): > 100 µM
TGI (K-562 leukemia): > 100 µM
